Results published in patent publication US20160296646A1, “ALKYLPHOSPHOCHOLINE ANALOGS FOR MULTIPLE MYELOMA IMAGING AND THERAPY” (Wisconsin Alumni Research Foundation, priority 2015, published 2016).

Legend:
[1] = system: CD138-/CD14- cells (other mononuclear cells); assay: Uptake in CD138-/CD14- cells isolated from patient bone marrow aspirate; type: cell-based, human
From the text: (§1) Bone marrow aspirate samples were taken from fifteen different patients diagnosed with multiple myeloma.
(§2) Uptake of both CLR1501 and CLR1502 was quantified by measuring fluorescence intensity for CD138^+ multiple myeloma tumor cells, CD14^+ monocyte/macrophage cells, and CD138^−/CD14^− cells isolated from bone marrow aspitrates from multiple myeloma patients.

[2] = system: MM.1S multiple myeloma cell line; assay: Uptake of fluorescent analogs in MM.1S cells (optical imaging); type: cell-based; conditions: for uptake: MM.1S cells, fluorescence imaging
From the text: (§3) FIG. 4 includes optical images showing uptake of CLR1501 in three different multiple myeloma cell lines (top row, MM.1S; middle row, MM.1R; bottom row, RPM18226). […] 20× magnification.
(§4) FIG. 6 includes optical images showing uptake of CLR1502 in three different multiple myeloma cell lines (top row, MM1S; middle row, MM.1R; bottom row, RPM18226). […] 20× magnification.

[3] = system: NCIH929 multiple myeloma cell line; assay: Uptake of fluorescent analogs in NCIH929 cells (optical imaging); type: cell-based; conditions: fluorescence imaging
From the text: (§5) FIG. 5 includes optical images showing uptake of CLR1501 in two additional multiple myeloma cell lines (top row, U266; bottom row, H929). […] 20× magnification.
(§6) FIG. 7 includes optical images showing uptake of CLR1502 in two additional multiple myeloma cell lines (top row, U266; bottom row, H929). […] 20× magnification.

[4] = system: CD14+ monocyte/macrophage cells from normal human blood; assay: Uptake in CD14+ monocyte/macrophage cells among normal PBMCs; type: cell-based
Experimental: (§7) Uptake of CLR1501 and 1502 was assessed using peripheral blood mononuclear cells (PBMCs) isolated from normal human blood.

[5] = system: CD14+ monocyte/macrophage cells; assay: Uptake in CD14+ monocyte/macrophage cells isolated from patient bone marrow aspirate; type: cell-based, human
From the text: as §1, §2

[6] = system: U266 multiple myeloma cell line; assay: Uptake of fluorescent analogs in U266 cells (optical imaging); type: cell-based; conditions: fluorescence imaging
From the text: as §5, §6

[7] = system: RPM18226 multiple myeloma cell line; assay: Uptake of fluorescent analogs in RPM18226 cells (optical imaging); type: cell-based; conditions: fluorescence imaging
From the text: as §3, §4

[8] = system: CD138+ multiple myeloma tumor cells; assay: Uptake in CD138+ tumor cells isolated from patient bone marrow aspirate; type: cell-based, human
From the text: as §1, §2

[9] = system: MM.1R multiple myeloma cell line; assay: Uptake of fluorescent analogs in MM.1R cells (optical imaging); type: cell-based; conditions: fluorescence imaging
From the text: as §3, §4

[10] = system: peripheral blood mononuclear cells (PBMCs) isolated from normal human blood; assay: Uptake in normal peripheral blood mononuclear cells; type: cell-based; conditions: compared to MM1.S cells
Experimental: FIG. 8 includes optical images showing uptake of CLR1502 in cells co-incubated with Hoechst 33452 (blue nuclear) stain. […] 20× magnification.
as §7

[11] = system: MM.1s multiple myeloma cells; assay: Bioactivity of [131I]-CLR1404: live fraction of MM.1s cells after exposure; type: cell-based; conditions: 48 hour exposure, control 96%
Experimental: MM.1s multiple myeloma cells were exposed to two different concentrations of [^131I]-CLR1404 (0.082 μCi and 0.91 μCi) for a 48 hour period, as well as to a control containing no [^131I]-CLR1404. Bioactivity for each group was determined by determining the percentage of cells that remained alive after the exposure period (live fraction).

[12] = CD138- cells from the same patient samples (except CD14+ cells)
[13] = CD14+ cells from patient bone marrow aspirates
[14] = CD138+ cells from bone marrow aspirates of fifteen multiple myeloma patients

SMILES	uptake [1, 12]	uptake ([1]; patient A, CD138-/CD14- cells)	uptake ([1]; patient B, CD138-/CD14- cells co-incubated with Hoechst 33452)	uptake [2]	localization of uptake within cells ([2]; MM.1S, MM.1R, RPM18226 cells co-incubated with lipid raft stain)	uptake [3]	uptake [4]	uptake [5, 13]	uptake ([5]; patient A, CD14+ cells)	uptake [6]	uptake [7]	uptake [8, 14]	uptake ([8]; patient A, CD138+ cells)	uptake [9]	uptake [10]	uptake ([1]; patient D, CD138-/CD14- cells)	uptake in CD138+ tumor cells relative to CD14 monocyte/macrophage cells (fluorescence intensity) ([8]; patient G, same patient)	uptake in CD138+ tumor cells relative to CD138-/CD14- cells (fluorescence intensity) ([8]; patient G, same patient)	live fraction ([11]; 0.082 μCi)	live fraction ([11]; 0.91 μCi)
C[N+](C)(C)CCOP(=O)([O-])OCCCCCCCCCCCCCCCCCCc1ccc(C2=C3C=CC=[N+]3[B-](F)(F)n3cccc32)cc1 [CLR1501]	very minimal to no uptake	no detectable uptake	minimal CLR1501 uptake	strong uptake	localized to the lipid rafts	high uptake	did exhibit uptake	did take up the analogs	taken up	high uptake	strong uptake	high uptake	taken up	strong uptake	minimal to no uptake					
CN1C(=CC=C2CCCC(C=CC3=[N+](C)c4ccccc4C3(C)C)=C2c2ccc(CCCCCCCCCCCCCCCCCCOP(=O)(O)OCC[N+](C)(C)C)cc2)C(C)(C)c2ccccc21 [CLR1502]	very minimal to no uptake			high uptake		high uptake	did exhibit uptake	did take up the analogs		high uptake	high uptake	high uptake		high uptake	minimal to no uptake	minimal uptake	threefold greater	about fifteen fold greater		
C[N+](C)(C)CCOP(=O)([O-])OCCCCCCCCCCCCCCCCCCc1ccc([131I])cc1 [[^131I]-CLR1404]																			71%	0%
